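Briefly, cells in 96-well plates were exposed to five compound concentrations for 48 h, and endpoints were estimated by linear interpolation. At the GI50, growth is halved. TGI: concentration producing complete growth inhibition.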 Some results are limits rather than exact numbers.

We go through ten compounds from PubChem BioAssay (NCI).

Among the test systems are ACHN renal; NCI-H460 lung; A498 renal; HL-60(TB) leukemia; K-562 leukemia; HT29 colon; MCF7 breast; SF-268 CNS; RXF 393 renal; OVCAR-4 ovarian.
What all share (assay): NCI anticancer screen, dose series, 48 h

Regarding `Clc1cc2c(c(CSc3nc4ccccc4n4cccc34)c1)OCOC2`, the GI50 was 67.3 µM in the experiment on ACHN renal; over 100 µM in the experiment on NCI-H460 lung; 22.6 µM in the experiment on A498 renal; over 100 µM in the experiment with HL-60(TB) leukemia; over 100 µM in the experiment with K-562 leukemia; over 100 µM in the experiment on HT29 colon. Further, the GI50 is 0.501 µM in the experiment on MCF7 breast, 31.3 µM with SF-268 CNS and 15.2 µM in the experiment on RXF 393 renal. The TGI in the experiment on ACHN renal, in the experiment with NCI-H460 lung, in the experiment on A498 renal, in the experiment on HL-60(TB) leukemia, with K-562 leukemia and in the experiment on HT29 colon was over 100 µM throughout. Moreover, the TGI was over 100 µM in the experiment on MCF7 breast, over 100 µM with SF-268 CNS and 61.9 µM in the experiment on RXF 393 renal.

Regarding `Nc1ncn([C@@H]2O[C@H](CO)[C@@H](O)[C@H]2O)c(=O)n1`, the GI50 is 0.664 µM in the experiment with ACHN renal; 0.232 µM in the experiment with NCI-H460 lung; 1.41 µM in the experiment on A498 renal; 0.699 µM in the experiment on HL-60(TB) leukemia; 0.572 µM in the experiment on K-562 leukemia; 1.24 µM in the experiment on MCF7 breast. For the same compound, the GI50 in the experiment with SF-268 CNS was 2.14 µM; with RXF 393 renal, 0.346 µM. Further, the TGI is 16.7 µM with ACHN renal; 1.78 µM in the experiment with NCI-H460 lung; 13.8 µM in the experiment with A498 renal; 4.91 µM in the experiment on HL-60(TB) leukemia; over 100 µM in the experiment with K-562 leukemia; 18.2 µM in the experiment with MCF7 breast. The values for the TGI in the experiment with SF-268 CNS and in the experiment on RXF 393 renal were 34.7 µM and 4.64 µM, respectively.

Take `CN(C)C1CCN(C(=O)c2ccc(NC(=O)Nc3ccc(-c4nc(N5CCOCC5)c5cccn5n4)cc3)cc2)CC1`: the GI50 in the experiment on ACHN renal was 1.05 µM; in the experiment on NCI-H460 lung, 0.0587 µM; with HL-60(TB) leukemia it was 0.105 µM; in the experiment with K-562 leukemia, 0.224 µM; in the experiment with HT29 colon it was 0.0558 µM; with OVCAR-4 ovarian it was 0.0137 µM. Further, the GI50 with SF-268 CNS is 0.0453 µM; with RXF 393 renal it was 0.088 µM. The TGI in the experiment with ACHN renal is 13 µM; in the experiment with NCI-H460 lung it was 13.6 µM; with HL-60(TB) leukemia, 1.76 µM; in the experiment on K-562 leukemia, 9.66 µM; with HT29 colon it was 3.78 µM; in the experiment with MCF7 breast it was 1.51 µM. Besides, the TGI came to 0.0721 µM with OVCAR-4 ovarian, 13.9 µM in the experiment on SF-268 CNS and 0.604 µM in the experiment with RXF 393 renal.

For `C=CCC1(c2ccc(OC)cc2)C=CC(=O)CC1` (configuration not stated), the TGI in the experiment on ACHN renal, in the experiment on NCI-H460 lung, in the experiment on HL-60(TB) leukemia, with K-562 leukemia, in the experiment on HT29 colon and in the experiment on MCF7 breast was over 100 µM in each case. The TGI with OVCAR-4 ovarian, in the experiment on SF-268 CNS and in the experiment with RXF 393 renal was over 100 µM in each case.

As for `CN1C(=O)c2ccccc2NC(=O)C12O[C@@H]2c1ccccc1` (some centres not stated), the TGI with ACHN renal, with NCI-H460 lung, with A498 renal, with HL-60(TB) leukemia, with HT29 colon and with MCF7 breast was over 100 µM in each case. Further, the TGI with OVCAR-4 ovarian and in the experiment with SF-268 CNS was over 100 µM throughout.

For `CN1CCN(c2ccc(Nc3cc(-c4cccc(-n5ccc6cc(C7CC7)cc(F)c6c5=O)c4CO)cn(C)c3=O)nc2)CC1`, the GI50 in the experiment with ACHN renal is 1.84 µM; in the experiment on NCI-H460 lung, 3.83 µM; in the experiment on A498 renal, 2.51 µM; in the experiment with HL-60(TB) leukemia it was 2.21 µM; with K-562 leukemia it was 3.17 µM; in the experiment with HT29 colon, 3 µM. Moreover, the GI50 in the experiment on MCF7 breast was 3.24 µM; with SF-268 CNS, 5.58 µM; with RXF 393 renal it was 1.9 µM. In addition, the TGI came to 3.76 µM in the experiment with ACHN renal; 15.7 µM in the experiment on NCI-H460 lung; 9.26 µM in the experiment on A498 renal; 4.4 µM in the experiment with HL-60(TB) leukemia; 12 µM in the experiment on K-562 leukemia; 13.9 µM in the experiment on HT29 colon. Moreover, the TGI in the experiment on MCF7 breast was 18.6 µM; with SF-268 CNS, 20.9 µM; in the experiment on RXF 393 renal, 5.37 µM.

For `CCC(C)(C)c1ccc(OCCCCNC(=O)c2ccc3ccccc3c2O)c(C(C)(C)CC)c1`, the TGI in the experiment with ACHN renal, in the experiment with NCI-H460 lung, in the experiment with A498 renal, in the experiment with HL-60(TB) leukemia, with K-562 leukemia and with HT29 colon was over 100 µM in each case. Also, the TGI in the experiment with MCF7 breast, in the experiment with OVCAR-4 ovarian and in the experiment on SF-268 CNS was over 100 µM throughout.

As to `COC(=O)c1c2c(c(C)[n+]([O-])c1C)C(=O)C=C(NCc1ccc(F)cc1)C2=O`, the GI50 with NCI-H460 lung was 0.493 µM; with A498 renal, 1.26 µM; in the experiment on HL-60(TB) leukemia it was 0.454 µM; in the experiment with K-562 leukemia it was 0.251 µM; with HT29 colon, 0.369 µM; in the experiment with MCF7 breast, 0.276 µM. The figures for the GI50 with OVCAR-4 ovarian, in the experiment with SF-268 CNS and in the experiment with RXF 393 renal were 0.254 µM, 1.38 µM and 1.43 µM, respectively. The TGI was 2 µM in the experiment on NCI-H460 lung; 2.56 µM with A498 renal; 1.92 µM with HL-60(TB) leukemia; 5.04 µM with K-562 leukemia; 1.04 µM in the experiment with MCF7 breast; 1.1 µM in the experiment with OVCAR-4 ovarian. Besides, the figures for the TGI with SF-268 CNS and in the experiment on RXF 393 renal were 4.66 µM and 2.93 µM, respectively.

Turning to `O=C(NC[C@H](O)CN1CCc2ccccc2C1)c1cc(NC2COC2)ncn1`, the GI50 with ACHN renal was 25.1 µM; in the experiment with NCI-H460 lung it was 3.98 µM; with HL-60(TB) leukemia, 20.3 µM; with K-562 leukemia it was 20.3 µM; in the experiment on HT29 colon, 20.8 µM; in the experiment with MCF7 breast, 3.93 µM. In addition, the figures for the GI50 in the experiment with OVCAR-4 ovarian, in the experiment on SF-268 CNS and in the experiment with RXF 393 renal were 16 µM, 14.9 µM and 2.31 µM, respectively. Besides, the TGI with ACHN renal is over 100 µM; in the experiment on NCI-H460 lung, 21.1 µM; in the experiment on HL-60(TB) leukemia, 60.5 µM; in the experiment on K-562 leukemia it was over 100 µM; in the experiment with HT29 colon, over 100 µM; in the experiment with MCF7 breast, over 100 µM. The TGI was over 100 µM in the experiment with OVCAR-4 ovarian, 97.5 µM in the experiment with SF-268 CNS and 12.9 µM in the experiment with RXF 393 renal.

Consider `CC(=O)Nc1ccc(-c2csc(Nc3cccc(-c4csc(C)n4)c3)n2)cc1`, for which the GI50 was 1.87 µM in the experiment with ACHN renal; 1 µM in the experiment with NCI-H460 lung; 6.92 µM in the experiment with A498 renal; 0.609 µM with HL-60(TB) leukemia; 0.385 µM in the experiment with K-562 leukemia; 2.38 µM with HT29 colon. Also, the GI50 in the experiment with MCF7 breast was 0.68 µM; with SF-268 CNS it was 4.38 µM; with RXF 393 renal, 2.01 µM. For the same compound, the TGI with ACHN renal was 22.6 µM; with NCI-H460 lung, over 50 µM; with A498 renal it was over 29.1 µM; in the experiment with K-562 leukemia, 9.55 µM; with HT29 colon it was over 50 µM; in the experiment on MCF7 breast, over 50 µM. Moreover, the TGI with SF-268 CNS is over 27.1 µM; in the experiment on RXF 393 renal, over 12.9 µM.
